“And” between values parts separate entries of the source, which are not always exact repeats. Identical values can stand only once.
How the values were obtained:
[1] = pH 7.4, 50 µM, 4 h, 25 °C; Pe calculated in 10^−6 cm/s, presented as −logPe
[2] = test system: isolated rat brain synaptosomes; experiment: Neurotoxicity: synaptosomal viability (MTT), substances applied alone; assay type: cell-based; settings: 50 µM applied alone, 1 h, compared to control (untreated synaptosomes)
Protocol: (§1) Synaptosomes and mitochondria were obtained by multiple, subcellular fractionation using a Percoll gradient. The necessary brain homogenate was prepared and centrifuged at 1000× g for 5 min at +4 °C. After centrifugation, the supernatants were collected and centrifuged again at 1000× g for 5 min at +4 °C. The supernatants from the two centrifugations were mixed and distributed into four tubes. The tubes were centrifuged at 10,000× g for 20 min at +4 °C three times. The last two centrifugations were for purification of synaptosomes and mitochondria.
(§2) The isolation of the required fractions was based on the formation of a colloidal solution of silicon (Percoll), as per the procedure, including: 1. Preparation of a 90% stock solution of Percoll, followed by preparation of two Percoll solutions of different percentages: 16% and 10%. An amount of 4 mL of each of the prepared 16% and 10% Percoll solutions was placed in six test tubes. A 90% Percoll (7.5% Percoll) was added to the precipitate obtained from the previous step from the last centrifugation. The obtained mixtures in all 12 tubes were centrifuged for 20 min at 15,000× g +4 °C. After centrifugation, three layers are formed in the tubes. The bottom layer contains mitochondria, the top layer contains lipids, and the middle layer—at the 16% to 10% Percoll limit—contains synaptosomes. The respective layer from each tube is removed through a glass pasteurizer and collected into one. Buffer B + glucose is added to it. The mixture was centrifuged at 10,000× g for 20 min at +4 °C. Thus, the isolation buffer is exchanged with the incubation buffer. After centrifugation, the pellet where the synaptosomes are mixed and made up with buffer B + glucose.
(§3) Synaptosomes and mitochondria were incubated with the test substances at a concentration of 50 µM for 1 h.
After 1 h incubation with the substances and toxic agent, synaptosomes were centrifuged on a microcentrifuge for 1 min at 15,000× g. The pellet was mixed gently with buffer B + glucose, and the supernatant where 6-OHDA was discarded to prevent oxidation of MTT. Centrifuge again at 15,000× g for 1 min. After the second wash, buffer B + glucose was added to the pellet. To the ‘washed’ synaptosomes, 60 µL of MTT solution is added. The plates were incubated with the MTT solution at 37 °C for 10 min. After incubation, the samples were centrifuged at 15,000× g for 2 min. The excess liquid was removed, and a DMSO solution was used to dissolve the formed formazan crystals. After dissolution, the amount of formazan is measured spectrophotometrically at λ = 580 nm.

[3] = test system: isolated rat brain synaptosomes; experiment: Neurotoxicity: reduced glutathione (GSH) level in synaptosomes, substances applied alone; assay type: cell-based; settings: 50 µM applied alone, 1 h, compared to control
Protocol: as §1, §2, §3
(§4) After precipitation of the proteins with trichloroacetic acid, the thiol groups in the supernatant were determined by DTNB, which produced a yellow-colored compound that absorbs light at λ = 412 nm. After incubation, synaptosomes were centrifuged at 4000× g for 3 min. The supernatant was removed and the pellet taken for GSH determination. It was treated with 5% trichloroacetic acid, then left for 10 min on ice. It was centrifuged at 8000× g for 10 min (2 °C). The supernatant is taken for GSH determination and frozen at −20 °C. Immediately before measurement, the samples are neutralized with 5N NaOH [58].

[4] = test system: isolated rat brain mitochondria; experiment: Neurotoxicity: MDA production in brain mitochondria, substances applied alone; assay type: cell-based; settings: 50 µM applied alone, compared to control
Protocol: as §1, §2, §3
To the mitochondria was added 0.3 mL of 0.2% thiobarbituric acid and 0.25 mL of sulfuric acid (0.05 M), and the mixture was boiled for 30 min. After boiling, the tubes were placed on ice, and 0.4 mL of n-butanol was added to each, then centrifuged at 3500× g for 10 min. The amount of MDA was determined spectrophotometrically at 532 nm.

[5] = test system: isolated rat brain mitochondria; experiment: Neurotoxicity: GSH level in brain mitochondria, substances applied alone; assay type: cell-based; settings: 50 µM applied alone, compared to control
Protocol: as §1, §2
[…]. After centrifugation of the homogenate at 6000× g, a 0.04% solution of DTNB was added to the supernatant to give a yellow color, the determination being spectrophotometric at 412 nm.

[6] = test system: isolated rat brain microsomes; experiment: Neurotoxicity: MDA production in brain microsomes, substances applied alone; assay type: cell-based; settings: 50 µM applied alone, compared to control
Protocol: (§5) The brain was homogenized in 9 volume parts of 0.1 M Tris buffer containing: 0.1 mM dithiothreitol, 0.1 mM phenylmethylsulfonyl fluoride, 0.2 mM EDTA, 1.15% KCl, and 20% (v/v) glycerol (pH 7.4). The resulting homogenate was centrifuged twice at 17,000× g for 30 min. The supernatants from the two centrifugations were pooled and centrifuged twice at 100,000× g for 1 h. The pellet was frozen in 0.1 M Tris buffer.
(§6) After completion of incubation of the microsomes with the substances and toxic agent, the reaction was stopped by the addition of 0.5 mL of 20% trichloroacetic acid, followed by 0.5 mL of 0.67% thiobarbituric acid. The ongoing reactions are associated with the formation of a colored complex between the malondialdehyde formed and thiobarbituric acid. The determination of MDA was spectrophotometric at 535 nm. A molar extinction coefficient of […] was used for the calculation.

[7] = test system: isolated rat brain synaptosomes; experiment: 6-OHDA-induced neurotoxicity model: GSH level; assay type: cell-based; settings: 50 µM in combination with 6-OHDA (150 µM), compared to the toxic agent
Protocol: as §1, §2, §3
Synaptosomes were incubated with 6-OHDA (150 μM) for 1 h.
as §4

[8] = test system: isolated rat brain microsomes; experiment: Fe2+/AA-induced non-enzyme lipid peroxidation model: MDA production; assay type: cell-based; settings: 50 µM in combination with Fe2+/AA, compared to the toxic agent
Protocol: as §5
Non-enzyme-induced lipid peroxidation was induced with 20 μM ferrous sulfate solution and 0.5 mM ascorbic acid solution [62].
as §6

[9] = molecular target: T1, human recombinant MAOA enzyme (hMAOA) (Homo sapiens, UniProt P21397); experiment: Human recombinant MAOA enzyme activity (fluorometric, Amplex Red); assay type: biochemical; settings: read-out: IC50 (EC50), (µM ± SD) hMAOA
T1 sequence (P21397 1-527): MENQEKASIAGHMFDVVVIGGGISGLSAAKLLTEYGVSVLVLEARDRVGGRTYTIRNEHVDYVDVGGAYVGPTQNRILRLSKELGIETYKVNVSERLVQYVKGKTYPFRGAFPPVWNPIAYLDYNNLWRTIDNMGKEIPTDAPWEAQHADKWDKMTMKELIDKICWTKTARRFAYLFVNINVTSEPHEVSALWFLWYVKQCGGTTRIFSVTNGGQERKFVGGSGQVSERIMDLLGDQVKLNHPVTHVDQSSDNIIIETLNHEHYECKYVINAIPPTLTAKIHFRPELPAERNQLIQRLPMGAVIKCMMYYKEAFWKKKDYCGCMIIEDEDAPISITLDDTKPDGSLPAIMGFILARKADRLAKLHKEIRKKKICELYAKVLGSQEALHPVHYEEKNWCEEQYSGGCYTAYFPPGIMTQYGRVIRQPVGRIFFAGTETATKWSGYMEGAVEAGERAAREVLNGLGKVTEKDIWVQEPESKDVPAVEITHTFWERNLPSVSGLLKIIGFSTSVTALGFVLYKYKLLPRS
Protocol: (§7) The activity of recombinant human MAOA/B was determined fluorometrically. Tyramine hydrochloride was used as substrate. The activity is determined by detection of H2O2 production. This production is in turn reported by binding to horseradish peroxidase using N-acetyl-3,7-dihydroxyphenoxazine (AmplexRed, Thermo Fisher Scientific, Waltham, MA, USA) [63].
(§8) Working solutions of the test substances, reagents, and human recombinant MAOA/B enzyme (hMAOA/B) were prepared in reaction buffer according to the manufacturer’s instructions. A pure working solution of MAOA/B in reaction buffer, a working solution of MAOA/B containing hydrogen peroxide, and a pure reaction buffer were used as controls. Substances were applied at a final concentration of 1 µM. The substances together with hMAOB were placed in a 96-well plate (8 samples for each substance), and then the plate was placed in an incubator for 30 min (in the dark, at 37 °C). Fluorimetric readings were performed in a Synergy 2 Microplate Reader at two wavelengths (570 nm and 690 nm).

[10] = molecular target: T2, human recombinant MAOB enzyme (hMAOB) (Homo sapiens, UniProt P27338); experiment: Human recombinant MAOB enzyme activity (fluorometric, Amplex Red); assay type: biochemical; settings: for inhibition at 1 µM: compared to control (pure hMAOB); for IC50: read-out: IC50 (EC50), (µM ± SD) hMAOB;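 on all read-outs here: tyramine as substrate, H2O2 formation detected by horseradish peroxidase coupled Amplex Red fluorescence read at 570 and 690 nm, compounds incubated with enzyme 30 min at 37 °C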
T2 sequence (P27338 1-520): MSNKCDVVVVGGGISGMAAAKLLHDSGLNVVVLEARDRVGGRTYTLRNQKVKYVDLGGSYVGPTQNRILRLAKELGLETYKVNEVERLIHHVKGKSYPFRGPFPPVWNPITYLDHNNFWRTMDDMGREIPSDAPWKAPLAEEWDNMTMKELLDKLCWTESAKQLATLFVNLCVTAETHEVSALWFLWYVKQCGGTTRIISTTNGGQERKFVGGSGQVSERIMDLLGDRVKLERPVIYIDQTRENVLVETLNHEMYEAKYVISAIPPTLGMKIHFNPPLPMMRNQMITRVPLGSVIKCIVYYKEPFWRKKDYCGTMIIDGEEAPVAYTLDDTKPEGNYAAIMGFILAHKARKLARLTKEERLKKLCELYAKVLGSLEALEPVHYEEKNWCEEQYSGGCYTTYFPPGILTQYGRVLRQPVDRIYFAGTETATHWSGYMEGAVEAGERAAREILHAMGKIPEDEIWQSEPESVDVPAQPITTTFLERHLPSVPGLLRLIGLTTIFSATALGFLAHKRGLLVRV
Protocol: as §7, §8

[11] = test system: isolated rat brain mitochondria; experiment: t-BuOOH-induced oxidative stress model: GSH level; settings: 50 µM in combination with t-BuOOH (75 µM), compared to the toxic agent
[12] = test system: isolated rat brain mitochondria; experiment: t-BuOOH-induced oxidative stress model: MDA production; settings: 50 µM in combination with t-BuOOH (75 µM), compared to the toxic agent

| SMILES | PAMPA BBB −logPe [1] | decrease of synaptosomal viability [2] [%] | decrease of glutathione (GSH) level [3] [%] | increase of MDA production [4] [%] | decrease of GSH level [5] [%] | increase of MDA production [6] [%] | preservation of GSH level [7] [%] | decrease of MDA production [8] [%] | IC50 [9] [µM] | SI: hMAOB selectivity index = IC50(hMAOA)/IC50(hMAOB) [10] | inhibition at 1 µM [10] [%] | IC50 [10] [µM] | preservation of GSH level [11] [%] | reduction of MDA production [12] [%] |
| --- | --- | --- | --- | --- | --- | --- | --- | --- | --- | --- | --- | --- | --- | --- |
| CC(C)NCC(O)COc1cccc2ccccc12.Cl (centres unmarked) [Propranolol HCl, reference compound] | 4.389 ± 0.014 | – | – | – | – | – | – | – | – | – | – | – | – | – |
| CCOC(=O)c1cc(-c2ccc(Br)cc2)n(CCC(=O)NN=Cc2ccc([N+](=O)[O-])cc2)c1C [8c] | 4.631 ± 0.047 | 30 | 25 | 66 | 25 | 60 | 50 | 27 | > 100 | >123 | 20 | 0.814 ± 0.2 | 40 | 5 |
| CCOC(=O)c1cc(-c2ccc(Br)cc2)n(CC(=O)NN=Cc2ccc(OC)cc2OC)c1C [7e] | 4.814 ± 0.15 | 30 | 25 | 50 | 25 | 52 | 40 | 31 | > 100 | >123 | 35 | 0.81 ± 0.09 | 50 | 10 |
| CCOC(=O)c1cc(-c2ccc(Br)cc2)n(CCC(=O)NN=Cc2cc(OC)c(O)c(OC)c2)c1C [8d] | 4.464 ± 0.026 and 4.464 | 20 | 15 | 40 | 15 | 30 | 70 | 54 | > 100 | >204 | 45 | 0.49 ± 0.09 | 80 | 38 |
| CCOC(=O)c1cc(-c2ccc(Br)cc2)n(CCC(=O)NN=Cc2ccc(N(C)C)cc2)c1C [8a] | 5.268 and 5.268 ± 0.014 | 35 | 25 | 60 | 20 | 55 | 40 | 35 | > 100 | >122 | 20 | 0.821 ± 0.1 | 60 | 18 |
| CCOC(=O)c1cc(-c2ccc(Br)cc2)n(CC(=O)NN=Cc2cc(OC)c(O)c(OC)c2)c1C [7d] | 4.819 ± 0.004 and 4.819 | 20 | 15 | 34 | 15 | 27 | 70 | 52 | > 100 | >204 | 45 | 0.491 ± 0.09 | 80 | 35 |
